Test [1] in a line: Cytotoxicity against Spodoptera frugiperda Sf9 cells assessed as reduction in cell viability. The format is cell-based.
A short description of test [2]: Cytotoxicity against Aedes albopictus NIAS-AeAl-2 cells assessed as reduction in cell viability. The format is functional, cell-based.
Another test relates to HL-60. Briefly: Cytotoxicity against human HL60 cells assessed as reduction in cell viability. In kind it is functional, cell-based.
Test [3] in a line: Effect on 28s ribosomal RNA expression in Spodoptera frugiperda Sf9 cells. The format is functional.
The subject of a further test is Sf9. The experiment in a line: Induction of DNA degradation in Spodoptera frugiperda Sf9 cells by DNA ladder assay. The format is functional, cell-based.

Activity calls are given as the source filed them. The calls are words filed in the database; no cut-off is given here. Where only a bound is given, the exact number is not on record here.

Usually IC50 stands for the concentration that gives 50% inhibition. For `COc1ccc(C[C@H]2C(=O)OC[C@@H]2Cc2ccc(OC)c(OC)c2)cc1O`, the IC50 in test [1] worked out at 19 µM.
For the molecule `COc1ccc(C[C@H]2COC(=O)[C@@H]2Cc2ccc(F)c(F)c2)cc1OC`, the IC50 in test [1] was found to be 64 µM; in test [2] it was 13 µM.
Turning to `COc1ccc(C[C@H]2COC(=O)[C@@H]2Cc2ccccc2C(F)(F)F)cc1OC`, the IC50 in test [1] stood at 25 µM.
As to `COc1ccc(C[C@@H]2COC(=O)[C@H]2Cc2ccc(Cl)cc2)cc1OC`, the IC50 in test [1] was found to be 40 µM.
Regarding `COc1ccc(C[C@H]2COC(=O)[C@@H]2Cc2ccc(O)cc2)cc1OC`, the IC50 in test [1] came to 9.9 µM; in test [2], 1 µM.
For `O=C1OC[C@H](Cc2cccc(O)c2)[C@H]1Cc1ccc(I)cc1`, the IC50 in test [1] was determined as 18 µM.
On to `COc1ccc(C[C@H]2COC(=O)[C@@H]2Cc2ccccc2F)cc1OC`, for which the IC50 in test [1] was found to be 43 µM.
For the molecule `Cc1ccccc1C[C@H]1COC(=O)[C@@H]1Cc1ccc(I)cc1`, the 50% inhibitory concentration (IC50) in test [1] is 21 µM.
Consider `O=C1OC[C@H](Cc2cccc(C(F)(F)F)c2)[C@H]1Cc1ccc(I)cc1`, for which the IC50 in test [1] was determined as 19 µM.
On the same count and under the same terms, in the case of `O=C1OC[C@H](Cc2ccc(F)cc2)[C@H]1Cc1ccc(I)cc1` it was 22 µM.
On to `COc1ccc(C[C@H]2COC(=O)[C@@H]2Cc2ccccc2I)cc1OC`, for which, in test [1], the IC50 was found to be 18 µM.
Same read-out and setting: next, `COc1cccc(C[C@H]2C(=O)OC[C@@H]2Cc2ccc(OC)c(OC)c2)c1`: 17 µM; `COc1ccc(C[C@H]2COC(=O)[C@@H]2Cc2ccc(I)cc2)cc1`: 21 µM.
For `COc1ccc(C[C@H]2COC(=O)[C@@H]2Cc2ccc3c(c2)OCO3)cc1OC` [(-)-KUSUNOKININ], the IC50 in test [1] was 8.2 µM; in test [2] it was 2.7 µM.
On to `COc1cc(C[C@H]2COC(=O)[C@@H]2Cc2ccc(I)cc2)ccc1O`, for which the IC50 in test [1] stood at 19 µM.
As to `COc1cc(C[C@H]2C(=O)OC[C@H]2Cc2ccc(OC)c(OC)c2)ccc1O`, the IC50 was over 100 µM in test [1], 57 µM in test [2] and 13 µM in the test on HL-60.
As for `O=C1OC[C@H](Cc2ccc3c(c2)OCCO3)[C@H]1Cc1ccc(I)cc1`, the IC50 in test [1] was found to be 10 µM.
The same measure, in the same setting: next, `COc1ccc(C[C@H]2COC(=O)[C@@H]2Cc2ccc(C)c(C)c2)cc1OC`: 9.3 µM; `COc1ccccc1C[C@H]1C(=O)OC[C@@H]1Cc1ccc(OC)c(OC)c1`: 24 µM; `O=C1OC[C@H](Cc2ccccc2)[C@H]1Cc1ccc(I)cc1`: 24 µM.
In the case of `O=C1OC[C@H](Cc2ccc3c(c2)OCO3)[C@H]1Cc1ccc(I)cc1`, in test [1], the half-maximal inhibitory concentration (IC50) was 12 µM.
As for `COc1ccc(C[C@H]2COC(=O)[C@@H]2Cc2ccccc2O)cc1OC`, the IC50 in test [1] was determined as 54 µM; in test [2] it was 17 µM.
Turning to `COc1ccc(C[C@@H]2COC(=O)[C@H]2Cc2ccc(I)cc2)cc1OC`, the IC50 in test [1] amounted to 25 µM.
On to `COc1ccc(C[C@H]2COC(=O)[C@@H]2Cc2ccc(Cl)cc2)cc1OC`, for which the values for the IC50 in test [1] and in test [2] were 10 µM and 2.3 µM, respectively.
For `COc1ccc(C[C@H]2COC(=O)[C@@H]2Cc2cccc(Cl)c2)cc1OC`, in test [1], the IC50 stood at 17 µM.
Regarding `COc1ccc(C[C@H]2COC(=S)[C@@H]2Cc2ccccc2C)cc1OC`, in test [1], the IC50 stood at 19 µM.
Regarding `COc1ccc(C[C@H]2COC(=S)[C@@H]2Cc2ccc(I)cc2)cc1OC`, the half-inhibitory concentration (IC50) was found to be 4.7 µM in test [1] and 2.4 µM in test [2].
On to `COc1ccc(C[C@H]2COC(=O)[C@@H]2Cc2ccc(OC)c(OC)c2)cc1OC`, for which the IC50 in test [1] was found to be 15 µM.
In the case of `COc1ccc(C[C@H]2COC(=O)[C@@H]2Cc2cccc(C(F)(F)F)c2)cc1OC`, the IC50 in test [1] is 19 µM.
Same read-out and setting: next, `O=C1OC[C@H](Cc2cccc(F)c2)[C@H]1Cc1ccc(I)cc1`: 22 µM.
`COc1ccc(C[C@H]2COC(=O)[C@@H]2Cc2ccc(F)cc2)cc1OC`: the values for the IC50 in test [1] and in test [2] were 28 µM and 8.3 µM, respectively.
As for `COc1ccc(C[C@H]2COC(=O)[C@@H]2Cc2cccc(I)c2)cc1OC`, in test [1], the IC50 was 5.4 µM.
For `COc1ccc(C[C@H]2COC(=O)[C@@H]2Cc2ccccc2)cc1OC`, the IC50 in test [1] worked out at 19 µM.
Same read-out and setting: next, `O=C1OC[C@H](Cc2ccccc2C(F)(F)F)[C@H]1Cc1ccc(I)cc1`: 24 µM; `O=C1OC[C@H](Cc2ccc(Cl)cc2)[C@H]1Cc1ccc(I)cc1`: 18 µM; `O=C1OC[C@H](Cc2cccc(Cl)c2)[C@H]1Cc1ccc(I)cc1`: 27 µM.
On to `COc1ccc(C[C@H]2COC(=O)[C@@H]2Cc2ccc3c(c2)OCCO3)cc1OC`, for which the IC50 in test [1] came out at 15 µM.
As to `COc1ccc(C[C@H]2COC(=O)[C@@H]2Cc2ccc(Cl)c(Cl)c2)cc1OC`, in test [1], the half-maximal inhibitory concentration (IC50) was 25 µM.
Take `COc1ccc(C[C@@H]2C(=O)OC[C@H]2Cc2ccc(OC)c(OC)c2)cc1`: in test [1], the IC50 is 47 µM.
As to `COc1ccc(C[C@H]2COC(=O)[C@@H]2Cc2ccccc2Cl)cc1OC`, the IC50 in test [1] was 24 µM.
With `COc1ccccc1C[C@H]1COC(=O)[C@@H]1Cc1ccc(I)cc1`, in test [1], the IC50 worked out at 22 µM.
The same measure, in the same setting: next, `COc1cccc(C[C@H]2COC(=O)[C@@H]2Cc2ccc(I)cc2)c1`: 15 µM; `O=C1OC[C@H](Cc2ccccc2F)[C@H]1Cc1ccc(I)cc1`: 20 µM.
Turning to `COc1ccc(C[C@H]2COC(=O)[C@@H]2Cc2ccc(I)cc2)cc1OC`, the figures for the IC50 in test [1] and in test [2] were 6.3 µM and 2.9 µM, respectively.
As to `COc1ccc(C[C@H]2COC(=O)[C@@H]2Cc2cccc3c2OCO3)cc1OC`, the concentration for half-maximal inhibition (IC50) in test [1] was 46 µM.
Still for that read-out and setting: next, `O=C1OC[C@H](Cc2ccccc2Cl)[C@H]1Cc1ccc(I)cc1`: 21 µM.
On to `COc1ccc(C[C@H]2COC(=O)[C@@H]2Cc2ccc(C)cc2)cc1OC`, for which the 50% inhibitory concentration (IC50) in test [1] was determined as 11 µM; in test [2], 3.5 µM.
`O=C1OC[C@H](Cc2ccc(O)cc2)[C@H]1Cc1ccc(I)cc1`: the IC50 in test [1] is 21 µM.
`COc1ccc(C[C@H]2COC(=O)[C@@H]2Cc2ccc(C(C)(C)C)cc2)cc1OC`: the IC50 in test [1] was determined as 17 µM.
Take `COc1ccc(C[C@@H]2COC(=O)[C@H]2Cc2ccc(O)cc2)cc1OC`: in test [1], the half-inhibitory concentration (IC50) came out at 29 µM.
As to `Cc1cccc(C[C@H]2COC(=O)[C@@H]2Cc2ccc(I)cc2)c1`, the IC50 in test [1] amounted to 24 µM.
Regarding `COc1ccc(C[C@H]2COC(=O)[C@@H]2Cc2ccc(C(F)(F)F)cc2)cc1OC`, the results for the half-inhibitory concentration (IC50) in test [1] and in test [2] were 20 µM and 10 µM, respectively.
As for `COc1ccc(C[C@H]2COC(=O)[C@@H]2Cc2cc(F)c(F)c(F)c2)cc1OC`, the IC50 in test [1] is 44 µM.
For the molecule `COc1ccc(C[C@H]2COC(=O)[C@@H]2Cc2ccc(Br)cc2)cc1OC`, the IC50 in test [1] stood at 9.1 µM.
Still for that read-out and setting: next, `COc1ccc(C[C@H]2COC(=O)[C@@H]2Cc2cc(OC)c(O)c(OC)c2)cc1OC`: 9.1 µM; `Cc1ccc(C[C@H]2COC(=O)[C@@H]2Cc2ccc(I)cc2)cc1`: 20 µM.
Turning to `COc1ccc(C[C@H]2COC(=O)[C@@H]2Cc2ccc(O)c(O)c2)cc1OC`, the IC50 in test [1] was 10 µM.
`COc1ccc(C[C@@H]2COC(=O)[C@H]2Cc2ccc(C)cc2)cc1OC`: the IC50 in test [1] was 42 µM.
Take `COc1ccc(C[C@H]2COC(=S)[C@@H]2Cc2cc(F)c(F)c(F)c2)cc1OC`: the values for the IC50 in test [1] and in test [2] were 22 µM and 15 µM, respectively.
Regarding `COc1ccc(C[C@H]2COC(=S)[C@@H]2Cc2ccc3c(c2)OCO3)cc1OC`, the IC50 in test [1] stood at 7.2 µM.
On to `O=C1OC[C@H](Cc2ccccc2O)[C@H]1Cc1ccc(I)cc1`, for which the IC50 in test [1] is 18 µM.
Turning to `COc1ccc(C[C@H]2COC(=O)[C@@H]2Cc2cccc(O)c2)cc1OC`, in test [1], the 50% inhibitory concentration (IC50) came out at 22 µM.
With `COc1ccc(C[C@H]2COC(=O)[C@@H]2Cc2cccc(F)c2)cc1OC`, the half-inhibitory concentration (IC50) in test [1] was found to be 23 µM.
With `COc1cc(C[C@@H]2C(=O)OC[C@@H]2Cc2ccc(OC)c(OC)c2)ccc1O`, the IC50 was found to be 13 µM in test [1], 6.3 µM in test [2] and 8.5 µM in the test on HL-60.
Consider `CCc1ccc(C[C@H]2C(=O)OC[C@@H]2Cc2ccc(OC)c(OC)c2)cc1`, for which the IC50 in test [1] was found to be 17 µM.
On to `COc1ccc(C[C@H]2C(=O)OC[C@@H]2Cc2ccc(OC)c(OC)c2)cc1`, for which the IC50 came to 11 µM in test [1] and 4.3 µM in test [2].
As to `COc1ccc(C[C@H]2COC(=O)[C@@H]2Cc2ccc(I)cc2)cc1O`, the concentration for half-maximal inhibition (IC50) in test [1] stood at 21 µM.
For `COc1ccc(C[C@@H]2COC(=O)[C@H]2Cc2ccc3c(c2)OCO3)cc1OC`, in test [1], the IC50 was 41 µM.
On to `COc1cc(C[C@@H]2C(=O)OC[C@H]2Cc2ccc(OC)c(OC)c2)ccc1O`, for which the values for the IC50 (in test [1]; in test [2]; with HL-60) were 80 µM, 28 µM and 23 µM, respectively. For the same molecule, the result in test [3] was Active.
`O=C1OC[C@H](Cc2ccc(C(F)(F)F)cc2)[C@H]1Cc1ccc(I)cc1`: the IC50 in test [1] stood at 15 µM.
Turning to `COc1cc(C[C@H]2C(=O)OC[C@@H]2Cc2ccc(OC)c(OC)c2)ccc1O` [ARCTIGENIN], the IC50 in test [1] turned out to be 6.7 µM; in test [2] it was 0.73 µM; in the test with HL-60 it was 13 µM. Further, the result in test [3] was Active. In the test with Sf9, the outcome was inactive.
In the case of `COc1ccc(C[C@H]2COC(=O)[C@@H]2Cc2cccc(C)c2)cc1OC`, in test [1], the IC50 was found to be 12 µM.
Still for that read-out and setting: in the case of `COc1ccc(C[C@H]2COC(=O)[C@@H]2Cc2ccccc2C)cc1OC` it was 28 µM.
In the case of `COc1ccc(C[C@H]2COC(=O)[C@@H]2Cc2ccc(O)c(C)c2)cc1OC`, the IC50 in test [1] came to 11 µM.

The values are drawn from ChEMBL document CHEMBL4622859, “Discovery of stereospecific cytotoxicity of (8R,8'R)-trans-arctigenin against insect cells and structure-activity relationship on aromatic ring” (Bioorg Med Chem Lett, 2020).
